Assay results taken from patent US20080153896A1, “Polymorphic Forms of an HMG-CoA Reductase Inhibitor and Uses Thereof” (priority 2006, published 2008).

Experiment: Stability (integrity) testing of amorphous and polymorphic form under storage conditions, RP-HPLC
Assay type: physicochemical
Parameters: key to Impurity RRT 0.738 / Impurity RRT 0.949 / Impurity RRT 1.050 / Impurity RRT 1.550 / Impurity RRT 0.136 / Impurity RRT 0.720 / Impurity RRT 0.706 / Impurity RRT 1.18 / Impurity RRT 1.826: % of total UV absorption (HPLC peak area); Impurity RRT 1.104 / Impurity RRT 1.698: unit not given beside the values
Conditions: Batch 3 PP00205
Procedure: The integrity of the different forms of the (3R, 5R)-7-[2-(4-fluorophenyl)-5-isopropyl-3-phenyl-4-[(4-hydroxymethylphenylamino)carbonyl]-pyrrol-1-yl]-3,5-dihydroxy-heptanoic acid, hemi calcium salt, was tested under different atmospheric conditions to determine the stability of the amorphous and polymorphic form of the drug in various storage environments. Reversed Phase-HPLC (RP-HPLC) was used to separate (3R, 5R)-7-[2-(4-fluorophenyl)-5-isopropyl-3-phenyl-4-[(4-hydroxymethylphenylamino)carbonyl]-pyrrol-1-yl]-3,5-dihydroxy-heptanoic acid, hemi calcium salt, from smaller molecules representing breakdown products as well as oxidized drug. The relative amount of the drug was reported as a percent of total absorption by UV. The total peak area of all UV absorption impurities was used to define total impurity of the drug. Impurities are defined by their relative retention time (RRT) compared to native drug. Samples were injected onto a C18 column using standard temperature, gradient and run-time conditions.
The results of this integrity testing for the amorphous form of (3R, 5R)-7-[2-(4-fluorophenyl)-5-isopropyl-3-phenyl-4-[(4-hydroxymethylphenylamino)carbonyl]-pyrrol-1-yl]-3,5-dihydroxy-heptanoic acid, hemi calcium salt, is shown in Table 5.
Three separate batches of polymorphic Form I of (3R, 5R)-7-[2-(4-fluorophenyl)-5-isopropyl-3-phenyl-4-[(4-hydroxymethylphenylamino)carbonyl]-pyrrol-1-yl]-3,5-dihydroxy-heptanoic acid, hemi calcium salt, were prepared and tested under the same atmospheric conditions described for the amorphous form.

CC(C)c1c(C(=O)Nc2ccc(CO)cc2)c(-c2ccccc2)c(-c2ccc(F)cc2)n1CC[C@@H](O)C[C@@H](O)CC(=O)[O-].CC(C)c1c(C(=O)Nc2ccc(CO)cc2)c(-c2ccccc2)c(-c2ccc(F)cc2)n1CC[C@@H](O)C[C@@H](O)CC(=O)[O-].[Ca+2] [Form I, (3R,5)-7-[2-(4-fluorophenyl)-5-isopropyl-3-phenyl-4-[(4-hydroxymethylphenylamino)carbonyl]-pyrrol-1-yl]-3,5-dihydroxy-heptanoic acid, hemi calcium salt]
Assay (5° C. 2M): 98.21 % W/W
Description (5° C. 2M): White
Highest Impurity (5° C. 2M): 0.402
Impurity RRT 0.935 (5° C. 2M): 0.402
Impurity RRT 1.045 (5° C. 2M): 0.340
Impurity RRT 1.095 (5° C. 2M): 0.155
Impurity RRT 1.44 (5° C. 2M): 0.203
Impurity RRT 1.590 (5° C. 2M): 0.096
Impurity RRT 1.640 (5° C. 2M): 0.064
Impurity RRT 1.698 (5° C. 2M): 0.067
Total Impurity (5° C. 2M): 1.33
Water (5° C. 2M): 4.02 % W/W
Assay (5° C. 3M): 98.20 % W/W
Description (5° C. 3M): White
Highest Impurity (5° C. 3M): 0.436
Impurity RRT 0.935 (5° C. 3M): 0.416
Impurity RRT 1.045 (5° C. 3M): 0.436
Impurity RRT 1.095 (5° C. 3M): 0.155
Impurity RRT 1.44 (5° C. 3M): 0.203
Impurity RRT 1.590 (5° C. 3M): 0.093
Impurity RRT 1.640 (5° C. 3M): 0.061
Impurity RRT 1.698 (5° C. 3M): 0.065
Total Impurity (5° C. 3M): 1.43
Water (5° C. 3M): 4.69 % W/W
Assay (5° C. 4M): 98.22 % W/W
Description (5° C. 4M): White
Highest Impurity (5° C. 4M): 0.381
Impurity RRT 0.138 (5° C. 4M): 0.219
Impurity RRT 0.935 (5° C. 4M): 0.381
Impurity RRT 1.045 (5° C. 4M): 0.324
Impurity RRT 1.095 (5° C. 4M): 0.128
Impurity RRT 1.449 (5° C. 4M): 0.220
Impurity RRT 1.596 (5° C. 4M): 0.077
Impurity RRT 1.640 (5° C. 4M): 0.081
Impurity RRT 1.698 (5° C. 4M): 0.057
Total Impurity (5° C. 4M): 1.487
Water (5° C. 4M): 5.08 % W/W
Assay (5° C. 5M): 98.53 % W/W
Description (5° C. 5M): White
Highest Impurity (5° C. 5M): 0.410
Impurity RRT 0.138 (5° C. 5M): 0.231
Impurity RRT 0.935 (5° C. 5M): 0.410
Impurity RRT 1.045 (5° C. 5M): 0.321
Impurity RRT 1.095 (5° C. 5M): 0.140
Impurity RRT 1.449 (5° C. 5M): 0.198
Impurity RRT 1.596 (5° C. 5M): 0.075
Impurity RRT 1.640 (5° C. 5M): 0.049
Impurity RRT 1.698 (5° C. 5M): 0.058
Total Impurity (5° C. 5M): 1.482
Water (5° C. 5M): 4.79 % W/W
Assay (5° C. 6M): 98.15 % W/W
Description (5° C. 6M): White
Highest Impurity (5° C. 6M): 0.368
Impurity RRT 0.138 (5° C. 6M): 0.256
Impurity RRT 0.935 (5° C. 6M): 0.368
Impurity RRT 1.045 (5° C. 6M): 0.315
Impurity RRT 1.095 (5° C. 6M): 0.165
Impurity RRT 1.449 (5° C. 6M): 0.211
Impurity RRT 1.596 (5° C. 6M): 0.081
Impurity RRT 1.640 (5° C. 6M): 0.049
Impurity RRT 1.698 (5° C. 6M): 0.050
Total Impurity (5° C. 6M): 1.495
Water (5° C. 6M): 4.78 % W/W
Assay (5° C. 9M): 98.14 % W/W
Description (5° C. 9M): White
Highest Impurity (5° C. 9M): 0.390
Impurity RRT 0.138 (5° C. 9M): 0.222
Impurity RRT 0.935 (5° C. 9M): 0.390
Impurity RRT 1.045 (5° C. 9M): 0.372
Impurity RRT 1.095 (5° C. 9M): 0.142
Impurity RRT 1.449 (5° C. 9M): 0.174
Impurity RRT 1.596 (5° C. 9M): 0.088
Impurity RRT 1.640 (5° C. 9M): 0.049
Impurity RRT 1.698 (5° C. 9M): 0.053
Total Impurity (5° C. 9M): 1.490
Water (5° C. 9M): 5.39 % W/W
Assay (5° C. 12M): 98.31 % W/W
Description (5° C. 12M): White
Highest Impurity (5° C. 12M): 0.438
Impurity RRT 0.935 (5° C. 12M): 0.438
Impurity RRT 1.045 (5° C. 12M): 0.383
Impurity RRT 1.095 (5° C. 12M): 0.177
Impurity RRT 1.449 (5° C. 12M): 0.217
Impurity RRT 1.596 (5° C. 12M): 0.090
Impurity RRT 1.640 (5° C. 12M): 0.066
Impurity RRT 1.698 (5° C. 12M): 0.066
Total Impurity (5° C. 12M): 1.437
Water (5° C. 12M): 5.97 % W/W
Assay (5° C./1M): 98.26 % W/W
Description (5° C./1M): White
Highest Impurity (5° C./1M): 0.421
Impurity RRT 0.706 (5° C./1M): 0.042
Impurity RRT 0.935 (5° C./1M): 0.421
Impurity RRT 1.045 (5° C./1M): 0.352
Impurity RRT 1.095 (5° C./1M): 0.165
Impurity RRT 1.44 (5° C./1M): 0.21
Impurity RRT 1.590 (5° C./1M): 0.100
Impurity RRT 1.640 (5° C./1M): 0.074
Impurity RRT 1.698 (5° C./1M): 0.071
Total Impurity (5° C./1M): 1.455
Water (5° C./1M): 4.77 % W/W
Assay (25° C./60% RH 3M): 98.11 % W/W
Description (25° C./60% RH 3M): White
Highest Impurity (25° C./60% RH 3M): 0.437
Impurity RRT 0.935 (25° C./60% RH 3M): 0.437
Impurity RRT 1.045 (25° C./60% RH 3M): 0.372
Impurity RRT 1.095 (25° C./60% RH 3M): 0.164
Impurity RRT 1.44 (25° C./60% RH 3M): 0.225
Impurity RRT 1.590 (25° C./60% RH 3M): 0.094
Impurity RRT 1.640 (25° C./60% RH 3M): 0.062
Impurity RRT 1.698 (25° C./60% RH 3M): 0.065
Total Impurity (25° C./60% RH 3M): 1.42
Water (25° C./60% RH 3M): 4.65 % W/W
Assay (25° C./60% RH 6M): 98.10 % W/W
Description (25° C./60% RH 6M): White
Highest Impurity (25° C./60% RH 6M): 0.476
Impurity RRT 0.935 (25° C./60% RH 6M): 0.476
Impurity RRT 1.045 (25° C./60% RH 6M): 0.324
Impurity RRT 1.095 (25° C./60% RH 6M): 0.191
Impurity RRT 1.449 (25° C./60% RH 6M): 0.196
Impurity RRT 1.596 (25° C./60% RH 6M): 0.071
Impurity RRT 1.640 (25° C./60% RH 6M): 0.061
Impurity RRT 1.698 (25° C./60% RH 6M): 0.061
Total Impurity (25° C./60% RH 6M): 1.380
Water (25° C./60% RH 6M): 4.96 % W/W
Assay (25° C./60% RH 9M): 97.95 % W/W
Description (25° C./60% RH 9M): White
Highest Impurity (25° C./60% RH 9M): 0.408
Impurity RRT 0.935 (25° C./60% RH 9M): 0.408
Impurity RRT 1.045 (25° C./60% RH 9M): 0.361
Impurity RRT 1.095 (25° C./60% RH 9M): 0.187
Impurity RRT 1.449 (25° C./60% RH 9M): 0.225
Impurity RRT 1.596 (25° C./60% RH 9M): 0.096
Impurity RRT 1.640 (25° C./60% RH 9M): 0.062
Impurity RRT 1.698 (25° C./60% RH 9M): 0.055
Impurity RRT 1.826 (25° C./60% RH 9M): 0.053
Total Impurity (25° C./60% RH 9M): 1.477
Water (25° C./60% RH 9M): 5.36 % W/W
Assay (25° C./60% RH 12M): 98.10 % W/W
Description (25° C./60% RH 12M): White
Highest Impurity (25° C./60% RH 12M): 0.399
Impurity RRT 0.138 (25° C./60% RH 12M): 0.204
Impurity RRT 0.935 (25° C./60% RH 12M): 0.399
